“Also recorded” adds a separate entry of the source.
Assays:
[1] = molecular target: T1, TNFα convertase from HL60 cells (Homo sapiens, UniProt P24158); test: 35S-labelled 26 kD TNFα in vitro transcription/translation autoradiographic convertase assay with HL60 convertase (P-30 fraction); assay type: biochemical; conditions: 100 pg/ml; 30° C., 1 hour; SDS-PAGE autoradiography
T1 construct: solution containing convertase activity partially purified from uninduced HL60 cells; endogenous in cells
T1 sequence (P24158 28-248): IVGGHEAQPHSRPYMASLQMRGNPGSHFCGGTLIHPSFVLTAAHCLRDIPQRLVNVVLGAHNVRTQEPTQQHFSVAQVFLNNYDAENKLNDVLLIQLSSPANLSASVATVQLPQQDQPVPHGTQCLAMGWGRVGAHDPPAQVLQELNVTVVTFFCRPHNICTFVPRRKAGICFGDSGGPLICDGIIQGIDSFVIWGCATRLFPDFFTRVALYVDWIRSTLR
Source text: A preferred assay procedure consists of in vitro transcription/translation to produce the 26 kD molecule, followed by treatment with convertase in the presence or absence of compounds being tested for convertase inhibitory activity. The procedure entails in vitro transcription/translation of the TNFα cDNA present in the pGEM vector. Thus, the sequence was removed from pB11 by Pst I digestion and was inserted into the Pst I site of pGEM-3 (obtainable from Promega Biotec, Madison Wis.). The resulting plasmid, termed pGEM-TNFα14, was amplified in E. coli using established techniques, and plasmid DNA was prepared according to the procedure of Birnboim and Doly, described above. Plasmid DNA was transcribed in vitro by linearizing it with Hind III, and the linearized plasmid templates were used to prepare capped transcripts with T7 RNA polymerase and an in vitro transcription kit supplied by Promega Biotec (Madison, Wis.).
The mRNA produced above was translated in vitro in the presence of ^35S-cysteine to produce ^35S-cysteine-labelled 26 kD TNFα. A rabbit reticulocyte lysate translation kit was used, also supplied by Promega Biotec, and the conditions recommended by the manufacturer were followed.
^35S-cysteine-labelled 26 kD TNFα was used to assay for convertase inhibitors as follows. 25 μl of in vitro translated material was combined with 250 μl of solution containing convertase activity partially purified from uninduced HL60 cells, plus compounds to be assayed for inhibitory activity. The convertase was produced by harvesting 2×10^9 HL60 cells, disrupting the cells, and isolating S-1 (supernatant fluid from a 100,000 ×g centrifugation) and P-30 (pellet from a 30,000×g centrifugation) fractions totalling 18 and 6 ml, respectively. 250 μl of the P-30 fraction was used, although the S-1 fraction may also be used. The assay was carried out at 30° C. for 1 hour, essentially as described above. Next, the reaction mixture was immunoprecipitated with rabbit anti-human TNFα polyclonal antisera (produced from TNFα made in E. coli) and protein A Sepharose, pelleted and washed. […]

[2] = molecular target: T2, purified native PR-3 from human neutrophils (Homo sapiens, UniProt P24158); test: 35S-labelled 26 kD TNFα autoradiographic convertase assay with purified native PR-3; assay type: biochemical; conditions: 45 μM; PR-3 0.3 μg/ml preincubated 30 minutes
T2 construct: from tissue; host or cells: human blood neutrophils
T2 sequence (P24158 28-248): T1 sequence (P24158 28-248)
Protocol: ^35S-cysteine-labelled 26 kD TNFα was used to assay for convertase inhibitors as follows. 25 μl of in vitro translated material was combined with 250 μl of solution containing convertase activity partially purified from uninduced HL60 cells, plus compounds to be assayed for inhibitory activity. The convertase was produced by harvesting 2×10^9 HL60 cells, disrupting the cells, and isolating S-1 (supernatant fluid from a 100,000 ×g centrifugation) and P-30 (pellet from a 30,000×g centrifugation) fractions totalling 18 and 6 ml, respectively. 250 μl of the P-30 fraction was used, although the S-1 fraction may also be used. The assay was carried out at 30° C. for 1 hour, essentially as described above. Next, the reaction mixture was immunoprecipitated with rabbit anti-human TNFα polyclonal antisera (produced from TNFα made in E. coli) and protein A Sepharose, pelleted and washed. The bound protein was eluted and electrophoresed using SDS-PAGE. The gel was fixed in 40% methanol, 10% acetic acid, soaked in Enlightening (Dupont), dried, and exposed to X-ray film which was subsequently developed.
The above assay was also used with purified native PR-3 from human neutrophils to test a variety of proteinase inhibitors for their ability to inhibit TNFα convertase activity, as shown in FIG. 5. Purified PR-3 (0.3 μg/ml) was preincubated for 30 minutes with the following inhibitors prior to addition of ^35S-labelled 26 kD-TNFα, and then assayed as described above: DCI (45 μM), α-2-macroglobulin (1 mg/ml), PMSF (20 μM), leupeptin (2 μg/ml), EDTA (10 mM), or pepstatin (2 μg/ml).

[3] = molecular target: T3, TNFα convertase/PR-3 (purified native PR-3) (Homo sapiens, UniProt P24158); test: Colorimetric Boc-Ala-ONp assay for convertase inhibition; assay type: biochemical; conditions: 95 μM
T3 construct: from tissue; host or cells: human blood neutrophils
T3 sequence (P24158 28-248): T1 sequence (P24158 28-248)
Protocol: TNFα convertase inhibition can also be measured by a colorimetric assay. In this type of assay, the actual activity of TNFα convertase is measured directly using a colorimetric TNFα convertase substrate. […] One such substrate is Boc-Ala-ONp (Bachem Bioscience, Inc., Philadelphia, Pa.). Other potentially useful substrates can be predicted from the structure of TNFα convertase and other serine proteases. Although the example herein uses purified native PR-3 as the TNFα convertase, it is contemplated that recombinant PR-3 or other TNFα convertases can be used in this assay as well.
Peptide diphenyl phosphonate inhibitors were synthesized and stored as lyophilized solids as described in Oleksyszyn and Powers, Biochem 30:485-493 (1991). Inhibitor solutions (10 mg/ml) were prepared in 100% dimethyl sulfoxide (DMSO) and diluted into aqueous buffers upon initiation of the experiments. 3,4, dichloro-isocoumarin was purchased from CalBiochem. Purified PR-3 (10 μl, 0.1 mg/ml) was mixed with varying concentrations of protease inhibitor ([…]) in 20 mM sodium phosphate buffer, pH 7.0, containing 0.1 M sodium chloride. Aliquots (40 μl) were removed at selected times and diluted 1/10 into a colorimetric assay for convertase, containing 0.5-1 mM Boc-Ala-ONp (prepared fresh from a 50 mM stock in 100% methanol) in 0.02 M sodium phosphate buffer, pH 7.0, 0.1 M sodium chloride. The increase in absorbance was monitored at 347 nm on a Hewlett Packard 8450A spectrophotometer, and using an extinction coefficient of 5.5×10^3 M^−1cm^−1 to calculate units of enzyme activity.
The peptide diphenyl phosphonates were tested in the colorimetric assay described in Example 3, for inhibition of TNFα convertase/PR-3 activity.

[4] = system: TNFα release from mouse macrophages; test: LPS-induced TNFα secretion by adherent peritoneal macrophages (ELISA); assay type: cell-based
Protocol: (§1) Release of TNFα by macrophages after stimulation by LPS is a major source of TNFα in the host. In these studies peritoneal macrophages were purified by adhesion, cultured in 24 well plates, and LPS was added to induce secretion of TNFα. […] DCI was then added in dimethyl sulfoxide vehicle to cultures. The control cultures had DMSO alone added in equivalent concentrations. Supernatants were collected and assayed for TNFα and IL-6. […] [table]

[5] = system: IL-6 release from mouse macrophages; test: LPS-induced IL-6 secretion by adherent peritoneal macrophages (B9 bioassay); assay type: cell-based
Protocol: as §1

[6] = Stability and formulation studies in corn oil; assay type: physicochemical; conditions: dissolved in corn oil
Source text: (§2) This represented a maximal tolerated dose of DCI that could be administered.

mice = test: Toxicity of DCI/oil injected into mice; assay type: in vivo, mouse; conditions: injection of DCI/oil into mice
Source text: as §2

serum TNFα = test: Serum TNFα in mice injected with a lethal dose of LPS; assay type: in vivo, mouse; conditions: DCI injected 1 hour before lethal LPS dose; ELISA and L929 lysis
Source text: (§3) The kinetics of induction TNFα and IL-6 in mice injected with a lethal dose of LPS was studied. […] Also, there was a delayed increase in TNFα measured up to the 6-hour time point. This was true for both immunoreactive mouse TNFα measured by ELISA and bioactive YNFα measured by lysis of L929 cells. IL-6 levels were not reduced by this therapy.

serum IL-6 = test: Serum IL-6 in mice injected with a lethal dose of LPS; assay type: in vivo, mouse; conditions: DCI injected 1 hour before lethal LPS dose
Source text: as §3

mice injected with LPS = test: Survival of mice injected with a lethal dose of LPS; assay type: in vivo, mouse
Protocol: The effect of DCI on survival of mice injected with a dose of LPS that results in 100% death of animals by 24 hours was also investigated.

PR-3 = molecular target: T4, PR-3 (Homo sapiens, UniProt P24158); test: Inhibition of PR-3, summary statement of the assays shown below; assay type: biochemical
T4 sequence (P24158 28-248): T1 sequence (P24158 28-248)
Source text: As shown below, PR-3 is inhibited by peptide diphenyl phosphonate inhibitors, elastinal, and dichloro-isocoumarin (DCI). The peptide diphenyl phosphonate inhibitors include Boc-Val-Pro-Val-p(OPh)2 and Boc-Ala-Pro-Val-p(OPh)2 (BOC-butoxycarbonyl). […] “Boc” means N-tert-butoxycarbonyl and “p(OPh)2” represents the diphenyl phosphonate moiety, wherein the formula—COOH group is replaced with P(=0)-(O-phenyl)2. See Oleksyszyn et al., Biochem 30:485 (1991). It will be appreciated that other peptide diphenyl phosphonate molecules may inhibit PR-3. Potential inhibitors may be constructed using the procedures shown in Oleksyszyn et al., supra, using small aliphatic peptides, for an example. Once the potential inhibitors are made, they may be tested in the assays shown below.

[7] = Enzymatic activity of purified recombinant PR-3 on Boc-Ala-ONP; assay type: biochemical, human
Protocol: In order to generate therapeutic-grade PR-3, the Mono-S purified recombinant PR-3 (obtained as described in Example 16) was subjected to size-exclusion chromatography. 0.8 mg of protein from the Mono-S pool was concentrated to 2 mg/ml by Amicon YM10 ultrafiltration and loaded onto a S-300 HR column (1.6×60 cm. Pharmacia Biotechnology, Inc., NJ) and chromatographed with a mobile phase of PBS containing 0.04% Triton X-100. Fractions enriched in PR-3 were detected by assaying for enzymatic activity (Boc-Ala-ONP assay) and analyzing on SDS-PAGE with Coomassie blue staining. A single band of 28 kD was observed. The PR-3 eluted with a retention time correlating to an apparent molecular mass of 35 kD as compared to BSA and chymotrypsinogen A chromatographed in the same buffer. This process produced PR-3 that was ≧95% pure with an overall recovery of about 25% and a lipopolysaccharide content of ≦about 10 ng per mg of protein as measured using an Limulus Amoebocyte Lysate Assay (Associates of Cape Cod, Inc., Woods Hole, Mass.). The purified enzyme has a specific activity of approximately 30 units per mg (where a unit is defined as 1 micromole of product produced from cleavage of Boc-Ala-ONP permin. at 25° C., pH 7.5) and a Kcat of approximately 12 per second.

[8] = Storage stability of active recombinant PR-3; assay type: physicochemical; conditions: 4° C.; phosphate buffer pH 7.0 with 0.1% Triton X-100, NaCl eluate
Protocol: The proPR-3 was purified as described above through the Mono-S-Sepharose step and the DPPI activation. At the end of the activation reaction, the PR-3 was diluted 3-fold using deionized water and loaded onto a Pharmacia Mono-S column, previously equilibrated in loading buffer B (10 mM sodium phosphate buffer, pH 7.0, containing 0.1% (v/v) Triton X-100). After washing the column with three bed volumes of loading buffer B, the column was eluted with a 20-minute, 0-0.8 M sodium chloride gradient at 1 ml/min flow rate. PR-3 eluted as the only major peak of protein in the gradient. PR-3 activity was measured across the column by diluting 10 μl of each fraction into 100 mM sodium phosphate buffer containing 10% acetonitrile and 0.5 mM Boc-Ala-ONp. The absorbance at 402 nm of each assay sample was measured after approximately 10 min. Fractions containing activated PR-3 were pooled and stored at 4° C. […] The active PR-3 was stable over 1 month at 4° C. under these conditions

[9] = LPS-stimulated peritoneal macrophages, versus DMSO vehicle

O=c1oc(Cl)c(Cl)c2ccccc12 [DCI, 3,4 dichloroisocoumarin]
inhibition of the convertase (conversion of 26 kD TNFα) [1]: inhibit the convertase | inhibition of TNFα convertase activity of purified PR-3 [2]: significant inhibitory activity | inhibition at 95 µM [3]: 100% | TNFα ([4]; DCI 20 μg/ml, macrophages 10^6/ml with LPS, 3 hours, ELISA): 0.05 ng/mL | TNFα secretion [4, 9]: markedly suppressed | IL-6 ([5]; DCI 20 μg/ml, macrophages 10^6/ml with LPS, 3 hours, B9 bioassay): 189 pg/mL | IL-6 response [5, 9]: not significantly altered | stability [6]: stable and retained serine protease inhibitor activity | LD 50% (mice): 1 mg/mL | serum TNFα (serum TNFα): marked inhibition; also recorded: decreased | IL-6 levels (serum IL-6): not reduced | dose response of survival effect (mice injected with LPS; 0.75 mg of DCI compared with 0.5 mg): more effective than 0.5 mg | survival (mice injected with LPS; prophylactic DCI, LPS dose giving 100% death by 24 hours): prolong survival | inhibition of PR-3 (PR-3): inhibited

B1: PR-3: purified active recombinant human PR-3 serine protease produced from proPR-3 in Sf9 cells, activated with DPPI (protein)
chain: MAHRPPSPALASVLLALLLSGAARAAEIVGGHEAQPHSRPYMASLQMRGNPGSHFCGGTLIHPSFVLTAAHCLRDIPQRLVNVVLGAHNVRTQEPTQQHFSVAQVFLNNYDAENKLNDILLIQLSSPANLSASVATVQLPQQDQPVPHGTQCLAMGWGRVGAHDPPAQVLQELNVTVVTFFCRPHNICTFVPRRKAGICFGDSGGPLICDGIIQGIDSFVIWGCATRLFPDFFTRVALYVDWIRSTLRRVEAKGRP
Kcat ([7]; Boc-Ala-ONP): approximately 12 per second | specific activity ([7]; unit = 1 micromole product per min at 25° C., pH 7.5): approximately 30 units per mg | stability on storage [8]: over 1 month
